# Data published in patent US8710252B2, “Hepodxilin analog enantiomers” (priority 2006, dated 2014).
# Assays:
# washed human platelets = experiment: I-BOP evoked human platelet aggregation in vitro with washed platelets; assay type: cell-based; conditions: washed human platelets, 5 ng I-BOP; compounds are methyl esters; read-out: IC50, inhibition of I-BOP evoked human platelet aggregation
# Experimental: Washed human platelets were prepared as previously described (Pace-Asciak et al., 2002). The aggregation of platelets was carried out in a conventional 4-well aggregometer with stirring of the suspension maintained at 37° C. The platelet suspension was caused to aggregate with a thromboxane stable analog, I-BOP. The isolated enantiomer compounds and their respective racemates, PBT-3 and PBT-4, were added at various concentrations to cuvettes containing 375×10^6 platelets/ml, 1 min prior to the addition of 5 ng I-BOP (Cayman Chemicals, Ann Arbor, Mich.). Aggregation was monitored for an additional 5 min.
# [1] = system: human leukemic K562 cells; experiment: Inhibition of 3H-methyl thymidine incorporation (cell proliferation) in K562 cells; assay type: cell-based; conditions: 6 h treatment; compounds are methyl esters
# Experimental: The human leukemic K562 cell line was established as previously reported (Qiao et al., 2003). Cells were maintained as suspension cultures in RPMI 1640 medium supplemented with 100 1.1/ml penicillin G, 100 μg/ml streptomycin, 10% (v/v) […] in a humidified atmosphere of 5% CO2 at 37° C. Cell viability was assessed by the exclusion of Trypan blue. Incorporation of ^3H-methyl thymidine into cell DNA was used as an assay for cell proliferation. Cells ([…]) were starved for 12 h, and were subsequently treated with the test compounds. Compounds A, B, C and D were made up at various concentrations in DMSO ([…] A, B, C and D. Concentrations were doubled for racemates PBT-3 and PBT-4) and 1 of these solutions was added/ml volume of cells. Cells were suspended in RPMI 1640 medium. At 6 h post-treatment at 37° C. the cells were fixed and denatured essentially as described in Qiao et al. (2003), harvested and passed through Whatman GF/C glass filters. The filters were washed and counted for radioactivity.
# [2] = system: Caspase-3 cleavage in K562 cells; experiment: Caspase-3 cleavage in K562 cells, Western blot; assay type: cell-based, human; conditions: 10 uM, 6 h, FIG. 7
# Experimental: Cell culture: Human leukemia K562 cells, obtained from ATCC (American Type Culture Collection), were maintained in RPMI 1640 medium containing 100 units/ml penicillin G, 100 μg/ml streptomycin, 10% (v/v) fetal calf serum in a humidified atmosphere with 5% CO2 at 37° C. The ability of the cells to exclude trypan Blue dye was used to assess cell viability.
# Cell treatment: K562 cells were stored in 0.5% FBS for 15 min before the experiment. The cells, 6×10^5, were treated with DMSO as vehicle, or with PBT-3, PBT-4, or compounds A, B, C and D at 10 uM/dish (8 ml). Gleevec™ (STI) was used at 5 μM/dish. All experiments were without FBS and treatment lasted 6 h at 37° C. Treatment was terminated by washing the cells with ice-cold PBS buffer by centrifugation at 500×g for 5 min. Cells were lysed in buffer containing 20 mM Tris-HCl buffer, pH 7.4, 150 NaCl, 1 mM EDTA, 1 mM EGTA, 1% Triton X-100 2.5 mM sodium pyrophosphate, 1 mM beta-glycerophosphate, 1 mM sodium orthovanadate, 1 mM PMSF and 1 μM leupeptin/1 μM Aprotinin/1 μM pepstain A, on ice for 30 min. The lysates were clarified by centrifugation at 15,000×g for 15 min at 4° C. Lysates were subjected to protein assay (BCA, Pierce) and kept at −80° C.
# Western blot: Thirty micrograms of protein from each sample were taken, and SDS-PAGE sample loading buffer was added. The mixture was boiled for 5 min. After centrifugation, the samples were loaded onto 15% SDS-PAGE gel and the gel was run (BioRad Protein II) for 2-3 h at 20 mA. The protein was transferred to a Trans-blot Nitrocellulose membrane (Millipore). Protein bands on the membranes were checked visually with Ponceau S-staining to ensure equivalent protein load/transfer comparing different samples. Membranes were blocked with 5% non-fat dry milk in PBS containing 0.5% Tween-20 for 1 h at room temperature, and then incubated with 1:1000 dilution of anti-caspase-3 antibody (BD Transduction Laboratories, Mississauga, Canada) overnight at 4° C. Secondary antibody of horseradish peroxidase anti-mouse antibody was used at 1:2000 dilution. Bound antibodies were detected by using enhanced chemilluminescence (ECL kit, Amersham Pharmacia Biotech) and the membranes were exposed to Hyper film for ECL detection. The same membrane was stripped by placing in buffer containing 62.5 mM Tris-HCl, pH 6.8/2% SDS/100 mM beta-mercaptoethanol at 50° C. for 30 min. The membrane was washed 3 times with PBS containing 0.5% Tween-20. The membrane was blocked by PBS buffer containing 0.5% Tween-20 and 5% skim milk. The anti-tubulin antibody (Santa Cruz, Calif.) was diluted 1:1000 and membrane analyzed by ECL as described above.
# [3] = molecular target: T1, Ga14-DBD-PPAR gamma-LBD fusion protein (Homo sapiens, UniProt P37231); experiment: PPAR gamma transactivation assay (Gal4-PPAR gamma LBD / UASx4-TK-luc reporter); assay type: cell-based
# T1 construct: expressed in transfected cells; host or cells: mouse embryonic fibroblasts (MEFs) or ME3 cells
# T1 sequence (P37231 238-503 limits assumed): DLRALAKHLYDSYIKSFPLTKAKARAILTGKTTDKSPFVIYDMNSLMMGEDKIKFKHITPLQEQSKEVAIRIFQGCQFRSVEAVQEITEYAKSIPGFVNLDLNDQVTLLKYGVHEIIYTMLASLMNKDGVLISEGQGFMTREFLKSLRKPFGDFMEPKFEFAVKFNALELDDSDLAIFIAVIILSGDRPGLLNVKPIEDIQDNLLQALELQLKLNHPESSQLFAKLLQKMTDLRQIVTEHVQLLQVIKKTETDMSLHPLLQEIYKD
# Text: The UASx4-TK-luc reporter construct (where UAS refers to “upstream activator sequence”) contains four Ga14-responsive elements. The plasmid Ga14-PPAR gammaLBD encodes a Ga14-DBD-PPAR gamma-LBD fusion protein (i.e. the DNA-binding domain, DBD, of Ga14 fused to the ligand-binding domain, LBD, of PPAR gamma) capable of transactivating the UASx4-TK-luc reporter plasmid by binding to the UAS. The CMV-beta-galactosidase plasmid (where CMV is cytomegalovirus) was used for normalization of experimental values.
# The cells were replated, typically in 24 well plates, so that at the time of transfection the cells were 50-70% confluent.
# Briefly, per well in a 24 well plate, UASx4TKIuc (0.2 microg) Ga14-PPAR gammaLBD (or pM-hPPAR gamma-LBD; 0.1 microg) and CMV-beta-galactosidase (0.05 microg) in 30 μL DMEM (free of serum and antibiotics) was mixed with 30 microL DMEM (free of serum and antibiotics) containing 1 microL metafectenein. The mixture was incubated at room temperature for 20 min to allow formation of nucleic acid-lipid complexes and then approximately 60 micros was added to each well containing the 50-70% confluent cells. […] Cells were harvested after 12-24 hours and luciferase and beta-galactosidase activities were measured according to standard protocols.
# Each experiment was carried out with triplicate samples with 0.1, 1 or 10 microM racemate or purified enantiomer.
IC50 (washed human platelets) [nM],IC50 [1] [µM],"PPAR Activation as % of positive control (Avandia) ([3]; 10 microM racemate, Table 3)","PPAR Activation as % of positive control (Avandia) ([3]; Experiment 1, 0.1 microM)","PPAR Activation as % of positive control (Avandia) ([3]; Experiment 1, 1 microM)","PPAR Activation as % of positive control (Avandia) ([3]; Experiment 1, 10 microM)","PPAR Activation as % of positive control (Avandia) ([3]; Experiment 2, 0.1 microM)","PPAR Activation as % of positive control (Avandia) ([3]; Experiment 2, 1 microM)","PPAR Activation as % of positive control (Avandia) ([3]; Experiment 2, 10 microM)","PPAR Activation as % of positive control (Avandia) ([3]; Experiment 3, 0.1 microM)","PPAR Activation as % of positive control (Avandia) ([3]; Experiment 3, 1 microM)","PPAR Activation as % of positive control (Avandia) ([3]; Experiment 3, 10 microM)",Compound,Cleavage of caspase-3 [2]
54 ± 9,4.6,18 +/− 1 % of positive control (Avandia),11 +/− 2 % of positive control (Avandia),15 +/− 2 % of positive control (Avandia),42 +/− 8 % of positive control (Avandia),4 +/− 1 % of positive control (Avandia),8 +/− 1 % of positive control (Avandia),41 +/− 5 % of positive control (Avandia),8 +/− 2 % of positive control (Avandia),18 +/− 4 % of positive control (Avandia),32 +/− 4 % of positive control (Avandia),"CCCCC/C=C\CC1CC1C(O)/C=C\C/C=C\CCCC(=O)OC (centres unmarked) [PBT-3, 10-hydroxy-11,12-cyclopropyl-eicosa-5Z,8Z,14Z-trienoic acid methyl ester, reference compound]",increased cleavage of caspase-3
79 ± 17,4.9,19 +/− 1 % of positive control (Avandia),13 +/− 2 % of positive control (Avandia),13 +/− 3 % of positive control (Avandia),60 +/− 9 % of positive control (Avandia),4 +/− 1 % of positive control (Avandia),7 +/− 1 % of positive control (Avandia),32 +/− 1 % of positive control (Avandia),7 +/− 1 % of positive control (Avandia),15 +/− 7 % of positive control (Avandia),33 +/− 8 % of positive control (Avandia),"CCCCC/C=C\CC1CC1C(O)/C=C\C/C=C\CCCC(=O)OC (centres unmarked) [PBT-4, 10-hydroxy-11,12-cyclopropyl-eicosa-5Z,8Z,14Z-trienoic acid methyl ester, reference compound]",increased cleavage of caspase-3
